≈ marks a conversion by molar mass, not a printed value.
Assays:
RAW264.7 [1] = experiment: Anti-inflammatory activity in LPS-induced mouse RAW264.7 cells assessed as inhibition of TNF-alpha production at 10 uM incubated for 24 hrs by qRT-PCR analysis relative to control; assay type: functional; design: scale not given: the % may be the effect or the level left
RAW264.7 [2] = experiment: Anti-inflammatory activity in LPS-induced mouse RAW264.7 cells assessed as inhibition of IL-6 production at 10 uM incubated for 24 hrs by qRT-PCR analysis relative to control; assay type: functional; design: scale not given: the % may be the effect or the level left
KB = experiment: Antitumor activity against human KB cells assessed as reduction in cell growth incubated for 96 hrs by MTT assay; assay type: functional, cell-based
HeLa = experiment: cells; conditions: Homo sapiens, 96 h
Description: Anticancer activity against human HeLa cells assessed as inhibition of cell growth incubated for 96 hrs by MTT assay

Row | Structure (SMILES) | Activity (RAW264.7 [1]) [%] | Activity (RAW264.7 [2]) [%] | other results
1 | NC(=O)Nc1sc(-c2ccc(F)cc2)cc1C(N)=O | 20 |  | 
2 | CN(Cc1cnc2nc(N)nc(N)c2n1)c1ccc(C(=O)N[C@@H](CCC(=O)O)C(=O)O)cc1 [METHOTREXATE] |  | 78.5 | 
3 | COc1ccc2cc([C@H](C)C(=O)O)ccc2c1 [NAPROXEN] |  | 65 | 
4 | CC(=O)O[C@H]1C(=O)[C@@]2(C)[C@H]([C@H](OC(=O)c3ccccc3)[C@]3(O)C[C@H](OC(=O)[C@H](O)[C@@H](NC(=O)c4ccccc4)c4ccccc4)C(C)=C1C3(C)C)[C@]1(OC(C)=O)CO[C@@H]1C[C@@H]2O [PACLITAXEL] |  |  | IC50 (KB): 0.18 µg/mL (≈ 0.211 µM); IC50 (HeLa): 0.9 µg/mL (≈ 1.05 µM)
5 | CC(C)Cc1ccc(C(C)C(=O)O)cc1 (stereo unspecified) [IBUPROFEN] | 90 |  | 

From ChEMBL document CHEMBL6127022, “Acid-sensitive prodrugs; a promising approach for site-specific and targeted drug release” (Eur J Med Chem, 2024)
